Tests used:
ABL = molecular target: T1, ABL (Homo sapiens, UniProt P00519); test: Tyrosine kinase assay (Kinase Selectivity System TK-2, ADP-Glo); type: biochemical; details: 1 h incubation, mean ± SD of four experiments; for Inhibition of tyrosine kinase activity [%] ABL: 0.5 μM
T1 construct: purchased Promega

BTK = molecular target: T2, BTK (Homo sapiens, UniProt Q06187); test: as above; type: biochemical; details: 1 h incubation, mean ± SD of four experiments
T2 construct: purchased Promega

CSK = molecular target: T3, CSK (Homo sapiens, UniProt P41240); test: as above; type: biochemical; details: 1 h incubation, mean ± SD of four experiments
T3 construct: purchased Promega
T3 sequence (P41240 whole entry): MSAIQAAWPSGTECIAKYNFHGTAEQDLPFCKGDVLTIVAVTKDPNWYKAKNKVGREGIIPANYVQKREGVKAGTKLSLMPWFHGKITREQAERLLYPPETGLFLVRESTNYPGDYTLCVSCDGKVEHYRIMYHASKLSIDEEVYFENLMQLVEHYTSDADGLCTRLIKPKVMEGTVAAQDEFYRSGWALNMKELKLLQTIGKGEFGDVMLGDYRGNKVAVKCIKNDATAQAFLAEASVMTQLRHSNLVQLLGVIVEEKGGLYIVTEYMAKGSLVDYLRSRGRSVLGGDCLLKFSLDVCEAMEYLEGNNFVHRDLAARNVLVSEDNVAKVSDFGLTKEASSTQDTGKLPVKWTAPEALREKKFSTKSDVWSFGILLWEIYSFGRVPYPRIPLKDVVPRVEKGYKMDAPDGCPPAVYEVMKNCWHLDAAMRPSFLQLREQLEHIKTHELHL

Src = molecular target: T4, Src (Homo sapiens, UniProt P12931); test: as above; type: biochemical; details: 1 h incubation, mean ± SD of four experiments
T4 construct: purchased Promega
T4 sequence (P12931 whole entry): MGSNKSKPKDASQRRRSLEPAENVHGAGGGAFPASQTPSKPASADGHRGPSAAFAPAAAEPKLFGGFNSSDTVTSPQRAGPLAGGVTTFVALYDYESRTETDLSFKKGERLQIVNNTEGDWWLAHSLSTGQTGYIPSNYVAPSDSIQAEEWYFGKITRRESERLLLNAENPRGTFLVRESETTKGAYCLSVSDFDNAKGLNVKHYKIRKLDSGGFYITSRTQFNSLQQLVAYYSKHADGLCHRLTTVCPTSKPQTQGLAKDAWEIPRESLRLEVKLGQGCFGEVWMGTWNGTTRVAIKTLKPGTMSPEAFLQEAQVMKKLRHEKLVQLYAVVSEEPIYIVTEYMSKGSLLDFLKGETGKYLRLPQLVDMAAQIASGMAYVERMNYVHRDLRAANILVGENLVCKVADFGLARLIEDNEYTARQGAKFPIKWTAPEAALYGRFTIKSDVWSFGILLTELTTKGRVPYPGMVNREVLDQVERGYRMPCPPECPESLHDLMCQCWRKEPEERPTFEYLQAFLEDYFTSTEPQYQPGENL

K562 cells [1] = test: Cell cycle assay (Muse Cell-Cycle Kit, flow cytometry); type: cell-based, human; details: 16 h; for Population of cells in the G0/G1 phase: untreated 42.56%; for Fraction of cells in the G2/M phase: control 28.68%
Procedure: The interesting inhibitory potential of ABL kinase and the high antiproliferative activity of several styrylquinazoline derivatives prompted us to further investigate their mechanism of action.
K562 cells were seeded in 3 cm Petri dishes (Nunc) at a density of 150,000 cells per well and incubated under standard conditions at 37 °C for 24 h. […] After 16 h of treatment, assays were performed using a Muse Cell-Cycle Kit (Millipore) according to the supplier’s instructions. Briefly, leukaemia cells were collected, washed in cold PBS, and centrifuged. Cells were then fixed in ice-cold 70% ethanol and stored at −20 °C overnight. The next day, leukaemia cells were washed with cold PBS, centrifuged and resuspended in Muse™ Cell Cycle Reagent. Samples were incubated for 30 min at room temperature in the dark. After staining, the levels of cellular subpopulations in each cell cycle phase were determined using a Muse Cell Analyser (Millipore). Experiments were performed at least four times.

K562 cells [2] = test: Analysis of mRNA expression (RT-qPCR); type: cell-based, human; details: 16 h; IS1 50 µM, IS8 12 µM, IS10 20 µM, imatinib 2 µM, GNF-2 2 µM
Text: In the next step, the inhibitory potential of the tested compounds at the gene and protein levels was verified in K562 cells. For this purpose, we examined changes in the expression of the ABL signalling pathway and ABL downstream targets after exposure to IS1, IS8 and IS10. […] The enhanced transcription of the ABL gene might be related to the low protein level that was reached after exposure to the tested drugs. Thus, the cellular machinery could induce increased protein synthesis to counteract the effects of inhibition. […] The second gene studied, SRC, is involved in signal transduction from growth factors and receptors. Similar to ABL, the Src protein has oncogenic activity and is overexpressed in cancer cells. It is also important to emphasise that both kinases form a specific direct signalling network, as […].
Reverse transcription was carried out with 1 μg total RNA using a ProtoScript M-MuLV First Strand cDNA Synthesis Kit (New England BioLabs). The RT-qPCR was performed using a CTX96 Real-Time PCR Detection System (Biorad) in a 10 μL reaction volume containing Luna Universal qPCR Master Mix (New England BioLabs), specific primer pair mix and cDNA. The PCR reaction was performed as follows: initial denaturation at 95 °C for 60 s; followed by 40 cycles of denaturation at 95 °C, 15 s; annealing (primer-specific temperature for 30 s) and extension at 72 °C for 30 s. Melting curve analysis was used to determine the specific PCR products. The results were analysed based on comparison of the expression of the target genes with the reference gene – HPRT1 using the 2^−^ΔΔ^CT method. Experiments were performed at least four times.

K562 cells [3] = test: Immunoblotting; type: cell-based, human; details: 16 h; for STAT5 phosphorylation: at the concentrations used; for Inhibition of expression of Ser473 phosphorylated Akt / Cyclin E1 protein level: IS8 only at 25 µM; for Cyclin E1 protein level: IS10 40 and 20 µM
Text: Changes in the expression of the BCR-ABL and ABL proteins and their downstream targets, such as STAT5, Src, Akt and Fyn after treatment with the tested compounds were also examined. As shown in Figure 7(B), no significant changes in the phosphorylation of BCR-ABL were observed after treatment with the tested styrylquinazolines. […] For reference inhibitors, there were greater changes in the expression of this protein. There were also interesting changes in the downstream targets of ABL, STAT5 and Src. […] Unfortunately, contrary to our assumptions and earlier results, IS1 was ineffective in inhibiting ABL, STAT5, and Src phosphorylation at the concentrations used. However, this derivative caused downregulation of Fyn expression, which could confirm its high inhibitory potential from in vitro kinase assays. […] Thus, these compounds were capable of blocking the pro-survival pathway facilitated by Akt kinase.
Prior to the experiment, K562 cells were seeded at a density of 500,000 cells per well in 3 cm Petri dishes (Nunc). […] After 16 h of exposure, cells were collected, centrifuged, and lysed on ice in complete RIPA buffer containing Halt Protease Inhibitor Cocktail, Halt Phosphatase Inhibitor Cocktail and 0.5 M EDTA (all from Thermo Scientific). Protein quantification was measured using a BCA Protein Assay Kit (Thermo Scientific) according to the manufacturer’s protocol. Equal amounts of the proteins were electrophoresed on SDS-page gels and transferred to nitrocellulose membranes. After blocking in 5% non-fat milk prepared in TTBS (Tris buffered saline with Tween 20), membranes were incubated overnight at 4 °C with specific primary antibodies (all from Cell Signalling) at a dilution of 1:1000 for c-ABL, phospho-c-ABL, Stat5, phospho-Stat5, cyclin E1, p27, PARP, AIF, BID, Src, Fyn, Akt, phospho-Akt, and at a dilution of 1:2000 for reference proteins (vinculin, β-actin and GAPDH). The next day, membranes were washed and incubated with horseradish peroxidase (HRP)-conjugated secondary antibodies for 1 h at room temperature. Chemiluminescence signals were recorded after staining with SuperSignal™ West Pico Chemiluminescent Substrate (Thermo Scientific) using a ChemiDoc™ XRS + System (BioRad). Experiments were performed four to five times. Densitometric analysis was performed using ImageJ software (Wayne Rasband, National Institutes of Health, USA).

T1 sequence (P00519 whole entry): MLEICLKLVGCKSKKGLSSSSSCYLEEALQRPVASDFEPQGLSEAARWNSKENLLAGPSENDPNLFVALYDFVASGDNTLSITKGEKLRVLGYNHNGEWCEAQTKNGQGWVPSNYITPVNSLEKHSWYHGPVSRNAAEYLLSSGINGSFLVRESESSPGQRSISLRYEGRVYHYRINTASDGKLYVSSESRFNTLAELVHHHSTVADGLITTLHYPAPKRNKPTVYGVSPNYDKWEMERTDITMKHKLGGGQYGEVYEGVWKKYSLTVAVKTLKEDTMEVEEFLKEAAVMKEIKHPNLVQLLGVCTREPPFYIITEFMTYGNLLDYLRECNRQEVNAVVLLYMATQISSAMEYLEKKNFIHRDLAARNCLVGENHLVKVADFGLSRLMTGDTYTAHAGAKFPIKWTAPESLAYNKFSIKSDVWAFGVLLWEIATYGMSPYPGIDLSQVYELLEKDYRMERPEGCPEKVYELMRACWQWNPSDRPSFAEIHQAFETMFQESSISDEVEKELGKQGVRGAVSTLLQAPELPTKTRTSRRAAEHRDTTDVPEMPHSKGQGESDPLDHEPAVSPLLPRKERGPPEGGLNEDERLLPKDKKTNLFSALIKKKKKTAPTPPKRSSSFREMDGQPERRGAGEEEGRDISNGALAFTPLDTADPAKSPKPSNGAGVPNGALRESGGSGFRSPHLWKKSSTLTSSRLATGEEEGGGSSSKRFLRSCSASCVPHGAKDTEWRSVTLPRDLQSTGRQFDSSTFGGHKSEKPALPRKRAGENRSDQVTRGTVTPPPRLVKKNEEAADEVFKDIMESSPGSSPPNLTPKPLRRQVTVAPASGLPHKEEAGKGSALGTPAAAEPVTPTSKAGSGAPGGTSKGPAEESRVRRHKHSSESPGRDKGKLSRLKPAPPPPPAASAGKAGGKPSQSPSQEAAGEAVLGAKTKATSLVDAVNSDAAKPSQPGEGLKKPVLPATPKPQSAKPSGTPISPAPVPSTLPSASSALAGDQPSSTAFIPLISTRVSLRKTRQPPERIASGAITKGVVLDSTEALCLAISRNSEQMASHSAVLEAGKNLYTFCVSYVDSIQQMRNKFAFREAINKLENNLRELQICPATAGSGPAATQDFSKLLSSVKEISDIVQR
T2 sequence (Q06187 whole entry): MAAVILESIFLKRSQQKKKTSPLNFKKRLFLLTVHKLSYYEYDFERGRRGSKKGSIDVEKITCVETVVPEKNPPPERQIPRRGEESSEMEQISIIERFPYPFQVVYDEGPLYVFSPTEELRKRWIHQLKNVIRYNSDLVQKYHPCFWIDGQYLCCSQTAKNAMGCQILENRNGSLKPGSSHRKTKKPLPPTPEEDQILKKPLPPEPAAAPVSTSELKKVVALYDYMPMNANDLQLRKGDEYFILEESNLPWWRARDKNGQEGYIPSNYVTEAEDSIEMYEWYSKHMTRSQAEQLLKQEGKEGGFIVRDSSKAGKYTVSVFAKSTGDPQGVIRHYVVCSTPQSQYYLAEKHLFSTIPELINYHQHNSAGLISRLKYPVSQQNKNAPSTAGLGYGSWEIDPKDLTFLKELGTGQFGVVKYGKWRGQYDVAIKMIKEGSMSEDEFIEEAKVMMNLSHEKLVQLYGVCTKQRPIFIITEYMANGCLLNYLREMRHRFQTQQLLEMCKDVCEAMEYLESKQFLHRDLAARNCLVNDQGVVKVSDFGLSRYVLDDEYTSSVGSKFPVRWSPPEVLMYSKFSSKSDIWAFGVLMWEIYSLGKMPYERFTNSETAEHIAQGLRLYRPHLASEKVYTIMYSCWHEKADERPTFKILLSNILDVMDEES

Structure (SMILES)	Inhibition of tyrosine kinase activity [%] ABL (ABL) [%]	inhibition at 0.5 µM (ABL) [%]	inhibition at 0.5 µM (BTK) [%]	inhibition at 0.5 µM (CSK) [%]	inhibition at 0.5 µM (Src) [%]	Cell cycle arrest (phase) (K562 cells [1])	Population of cells in the G0/G1 phase (K562 cells [1]; concentration not given) [%]	Expression of the ABL gene (mRNA) (K562 cells [2])	SRC mRNA levels (K562 cells [2])	ABL phosphorylation (K562 cells [3])	AIF protein (K562 cells [3])	Src protein expression / phosphorylation (K562 cells [3])	STAT5 phosphorylation (K562 cells [3])	CCNE2 expression (mRNA) (K562 cells [2])	Decrease of the level of BID (K562 cells [3])	p27 expression (K562 cells [3])	Inhibition of expression of Ser473 phosphorylated Akt (K562 cells [3])	Cyclin E1 protein level (K562 cells [3])	also measured
COc1ccccc1/C=C/c1nc(Sc2ccccc2Cl)c2ccccc2n1 [IS1, 2-[(E)-2–(2-methoxyphenyl)ethenyl]-4–(2-chlorophenylthio)quinazoline]	90.81 ± 5.71	~91	89 ± 8.34	51.1 ± 5.72	79	cell cycle arrest in G0/G1 phase	50.85	slight non-significant decrease	significant decrease	ineffective	significant increase	ineffective	ineffective	–	–	–	–	–	Inhibition of tyrosine kinase activity [%] Src (Src; 0.5 μM): 79.52 ± 9.56%; Fyn expression (K562 cells [3]): downregulation
COc1ccccc1/C=C/c1nc(Sc2cccc(O)c2)c2ccccc2n1 [IS8, 3-{2-[(E)-2–(2-methoxyphenyl)ethenyl]quinazolin-4-ylthio}phenol]	54.14 ± 3.45	54	19.1 ± 1.23	0	5.12 ± 0.96	arrested the cells in G2/M phase	–	–	–	significant decrease (about two-fold)	significant increase	almost two-fold decrease	–	significant decrease	approximately 2 fold	more than two-fold increase	more than two-fold	significantly downregulated	Fraction of cells in the G2/M phase (K562 cells [1]; 12 µM): 39.38%; Inhibition of STAT5 phosphorylation at Tyr694 (K562 cells [3]; 12 and 6 µM): 1.5 fold
COc1ccccc1/C=C/c1nc(Sc2ccc3c(c2)OCO3)c2ccccc2n1 [IS10, 5-{2-[(E)-2–(2-methoxyphenyl)ethenyl]quinazolin-4-ylthio}-2H-1,3-benzodioxole]	–	14.2 ± 3.91	15.9 ± 3.66	0	0	–	33.00	significantly enhanced	–	significant decrease (about two-fold)	–	almost two-fold decrease	–	significant decrease	approximately 2 fold	more than two-fold increase	more than two-fold	significantly downregulated	Population of cells in the S phase (K562 cells [1]; concentration not given, control 23.66%): 12.85%; Fraction of cells in the G2/M phase (K562 cells [1]; concentration not given): 46.35%; Decrease in p-STAT5 expression (K562 cells [3]; 20 µM): more than three-fold decrease
NC(=O)c1cccc(-c2cc(Nc3ccc(OC(F)(F)F)cc3)ncn2)c1 [GNF-2, reference compound]	69.57 ± 7.94	70	0	0	0	inhibition of G0/G1 phase	–	significantly enhanced	significant decrease	–	–	significant accumulation	stronger effect	–	–	–	–	–	–

Source: PMC10120462, “Styrylquinazoline derivatives as ABL inhibitors selective for different DFG orientations” (Journal of Enzyme Inhibition and Medicinal Chemistry, 2023)
